From patent US20160304461A1, “QUINOLONE COMPOUND AND PHARMACEUTICAL COMPOSITION” (OTSUKA PHARMACEUTICAL CO., LTD., priority 2007, published 2016)

Experiments:
[1] = test system: human neuroblastoma cell lines SH-SY5Y; assay: Improvement of mitochondrial dysfunction in MPP+-treated SH-SY5Y cells (Alamar Blue mitochondrial oxidation reduction activity); type: cell-based; settings: SH-SY5Y cells in 1.5 mM MPP+ medium, relative to cells in DMSO alone = 100%, read-out: Fluorescence Intensity (%); for activity at 0.01 µg/mL: test compound 0.01 μg/ml; for activity at 0.03 µg/mL: test compound 0.03 μg/ml; for activity at 0.1 µg/mL: test compound 0.1 μg/ml; for activity at 0.3 µg/mL: test compound 0.3 μg/ml; for activity at 1 µg/mL: test compound 1 μg/ml
Procedure: Evaluation of Improvement of Mitochondrial Dysfunction using Human Neuroblastoma Cell Lines SH-SY5Y Treated with 1-methyl-4-phenylpyridinium (MPP^+)
In human neuroblastoma cell lines SH-SY5Y in which mitochondrial activity was injured by MPP^+ treatment (Bollimuntha S. et al., J Biol Chem, 280, 2132-2140 (2005) and Shang T. et al., J Biol Chem, 280, 34644-34653 (2005)), improvement of the mitochondrial dysfunction was evaluated on the basis of the measurement value of the mitochondrial oxidation reduction activity using Alamar Blue fluorescent dye after the compound addition (Nakai M. et. al, Exp Neurol, 179, 103-110 (2003)).
The human neuroblastoma cell lines SH-SY5Y were cultured in Dulbecco's Modified Eagle's Medium containing 10% fetal bovine serum (DMEM containing 50 units/ml penicillin and 50 μg/ml streptomycin as antibiotics) at 37° C. in the presence of 5% carbon dioxide. Cells were scattered on a poly-D-lysine-coated 96-well black plate at a concentration of 3-6×10^4 cells/cm^2 (medium amount: 100 μl/well), and cultured in the above medium for two days. Further, the medium was changed to a DMEM containing a 1% N2 supplement (N2-DMEM) or to a medium (100 μl/well) in which 1.5 mM MPP^+ was dissolved. The cells were cultured therein for 39 to 48 hours, and then subjected to a mitochondrial oxidation reduction activity measurement system. A sample compound that had been previously dissolved in dimethyl sulfoxide (DMSO) was diluted with N2-DMEM, and added in a volume of 10 μl/well 24 hours before the activity measurement (final compound concentration: 0.01 to 1 μg/ml).
After removal of the medium by suction, a balanced salt solution containing 10% Alamar Blue (154 mM sodium chloride, 5.6 mM potassium chloride, 2.3 mM calcium chloride, 1.0 mM magnesium chloride, 3.6 mM sodium bicarbonate, 5 mM glucose, 5 mM HEPES, pH 7.2) was added in a volume of 100 μl/well, and reacted in an incubator at 37° C. for 1 hour. The fluorescent intensity was detected using a fluorescence detector (a product of Hamamatsu Photonics K.K., excitation wavelength 530 nm, measurement wavelength 580 nm) to thereby measure the mitochondrial oxidation reduction activity.
The fluorescent intensity of the well of the cells cultured in a medium containing MPP^+ and in each of the sample compounds was relatively evaluated based on a 100% fluorescent intensity of the well of the cells cultured in a medium containing DMSO alone (final concentration: 0.1%).

Question: With `CCCN(C)c1ccc(F)c2c(=O)c(-c3ccc(OC)cc3)c[nH]c12` [Example 30, 5-Fluoro-3-(4-methoxyphenyl)-8-(N-methyl-N-propylamino)-1H-quinolin-4-one] as the compound, how does the activity at 0.01 µg/mL [1] read?
Answer: 50%

Question: What about the activity at 0.03 µg/mL [1] of the same compound?
Answer: 54%

Question: And the activity at 0.1 µg/mL [1]?
Answer: 69%

Question: What about the activity at 0.3 µg/mL [1] of the same compound?
Answer: 64%

Question: What about the activity at 1 µg/mL [1] of the same compound?
Answer: 56%

Question: And the melting point?
Answer: 145 to 146 °C

Question: Which results are given for `COCCOc1ccc(F)c2c(=O)c(-c3ccc(OC)cc3)c[nH]c12` [Example 36, 5-Fluoro-8-(2 methoxyethoxy)-3-(4-methoxyphenyl)-1H-quinolin-4-one]?
Answer: activity at 0.01 µg/mL [1]: 63%; activity at 0.03 µg/mL [1]: 65%; activity at 0.1 µg/mL [1]: 74%; activity at 0.3 µg/mL [1]: 71%; activity at 1 µg/mL [1]: 91%; melting point: 142 to 144 °C

Question: Which activity at 0.01 µg/mL [1] does the source give for `CCCOc1ccc(F)c2c(=O)c(-c3ccc(OC)cc3)cn(CC3CC3)c12` [Example 94, 1-Cyclopropylmethyl-5-fluoro-3-(4-methoxyphenyl)-8-propoxy-1H-quinolin-4-one] here?
Answer: 56%

Question: And the activity at 0.03 µg/mL [1]?
Answer: 67%

Question: What about the activity at 0.1 µg/mL [1] of the same compound?
Answer: 69%

Question: And the activity at 0.3 µg/mL [1]?
Answer: 59%

Question: And the activity at 1 µg/mL [1]?
Answer: 41%

Question: What about the melting point of the same compound?
Answer: 60 to 62 °C

Question: Which results are given for `COc1ccc(-c2c[nH]c3c(-c4ccco4)ccc(F)c3c2=O)cc1` [Example 86, 5-Fluoro-8-furan-2-yl-3-(4-methoxyphenyl)-1H-quinolin-4-one]?
Answer: activity at 0.01 µg/mL [1]: 52%; activity at 0.03 µg/mL [1]: 59%; activity at 0.1 µg/mL [1]: 68%; activity at 0.3 µg/mL [1]: 61%; activity at 1 µg/mL [1]: 39%; melting point: 209 to 211 °C

Question: For `CCCOc1ccc(F)c2c(=O)c(-c3ccc(OC)cc3)cn(CC)c12` [Example 92, 1-Ethyl-5-fluoro-3-(4-methoxyphenyl)-8-propoxy-1H-quinolin-4-one], which activity at 0.01 µg/mL [1] is on record?
Answer: 63%

Question: And the activity at 0.03 µg/mL [1]?
Answer: 75%

Question: And the activity at 0.1 µg/mL [1]?
Answer: 77%

Question: What about the activity at 0.3 µg/mL [1] of the same compound?
Answer: 69%

Question: What about the activity at 1 µg/mL [1] of the same compound?
Answer: 55%

Question: And the melting point?
Answer: 123 to 125 °C

Question: What does the source list for `CCn1cc(-c2ccc(OC)cc2)c(=O)c2c(F)ccc(OCC3CC3)c21` [Example 66, 8-Cyclopropylmethoxy-1-ethyl-5-fluoro-3-(4-methoxyphenyl)-1H-quinolin-4-one]?
Answer: activity at 0.01 µg/mL [1]: 66%; activity at 0.03 µg/mL [1]: 72%; activity at 0.1 µg/mL [1]: 83%; activity at 0.3 µg/mL [1]: 77%; activity at 1 µg/mL [1]: 60%; melting point: 150 to 152 °C

Question: With `CCCOc1ccc(F)c2c(=O)c(-c3ccc(OC)cc3)cn(C)c12` [Example 91, 5-Fluoro-3-(4-methoxyphenyl)-1-methyl-8-propoxy-1H-quinolin-4-one] as the compound, how does the activity at 0.01 µg/mL [1] read?
Answer: 65%

Question: And the activity at 0.03 µg/mL [1]?
Answer: 69%

Question: And the activity at 0.1 µg/mL [1]?
Answer: 81%

Question: And the activity at 0.3 µg/mL [1]?
Answer: 82%

Question: What about the activity at 1 µg/mL [1] of the same compound?
Answer: 83%

Question: What about the melting point of the same compound?
Answer: 147 to 148 °C

Question: Which activity at 0.01 µg/mL [1] does the source give for `COc1ccc(-c2c(C)[nH]c3c(OCC4CC4)ccc(F)c3c2=O)cc1` [Example 47, 8-Cyclopropylmethoxy-5-fluoro-3-(4-methoxyphenyl)-2-methyl-1H-quinolin-4-one] here?
Answer: 51%

Question: And the activity at 0.03 µg/mL [1]?
Answer: 58%

Question: What about the activity at 0.1 µg/mL [1] of the same compound?
Answer: 71%

Question: What about the activity at 0.3 µg/mL [1] of the same compound?
Answer: 73%

Question: And the activity at 1 µg/mL [1]?
Answer: 82%

Question: And the melting point?
Answer: 167 to 169 °C

Question: For `CCCOc1ccc(F)c2c(=O)c(-c3ccc(CC)cc3)c(C)[nH]c12` [Example 71, 3-(4-Ethylphenyl)-5-fluoro-2-methyl-8-propoxy-1H-quinolin-4-one], which activity at 0.01 µg/mL [1] is on record?
Answer: 56%

Question: And the activity at 0.03 µg/mL [1]?
Answer: 61%

Question: What about the activity at 0.1 µg/mL [1] of the same compound?
Answer: 73%

Question: What about the activity at 0.3 µg/mL [1] of the same compound?
Answer: 78%

Question: And the activity at 1 µg/mL [1]?
Answer: 72%

Question: What about the melting point of the same compound?
Answer: 221 to 222 °C

Question: Which results are given for `COc1ccc(-c2c[nH]c3c(N(C)C4CCCCC4)ccc(F)c3c2=O)cc1` [Example 25, 8-(N-Cyclohexyl-N-methylamino)-5-fluoro-3-(4-methoxyphenyl)-1H-quinolin-4-one]?
Answer: activity at 0.01 µg/mL [1]: 46%; activity at 0.03 µg/mL [1]: 56%; activity at 0.1 µg/mL [1]: 66%; activity at 0.3 µg/mL [1]: 50%; activity at 1 µg/mL [1]: 24%; melting point: 224 to 225 °C

Question: With `CCCOc1cc(F)c(F)c2c(=O)c(-c3ccc(OC)cc3)c[nH]c12` [Example 21, 5,6-Difluoro-3-(4-methoxyphenyl)-8-propoxy-1H-quinolin-4-one] as the compound, how does the activity at 0.01 µg/mL [1] read?
Answer: 52%

Question: And the activity at 0.03 µg/mL [1]?
Answer: 59%

Question: And the activity at 0.1 µg/mL [1]?
Answer: 63%

Question: And the activity at 0.3 µg/mL [1]?
Answer: 74%

Question: What about the activity at 1 µg/mL [1] of the same compound?
Answer: 57%

Question: And the melting point?
Answer: 198 to 200 °C

Question: Which activity at 0.01 µg/mL [1] does the source give for `CCCOc1ccc(F)c2c(=O)c(-c3ccc(N(C)C)cc3)c[nH]c12` [Example 61, 3-(4-Dimethylaminophenyl)-5-fluoro-8-propoxy-1H-quinolin-4-one] here?
Answer: 70%

Question: And the activity at 0.03 µg/mL [1]?
Answer: 65%

Question: What about the activity at 0.1 µg/mL [1] of the same compound?
Answer: 85%

Question: What about the activity at 0.3 µg/mL [1] of the same compound?
Answer: 80%

Question: What about the activity at 1 µg/mL [1] of the same compound?
Answer: 86%

Question: What about the melting point of the same compound?
Answer: 206 to 207 °C

Question: Which activity at 0.01 µg/mL [1] does the source give for `CCCOc1ccc(F)c2c(=O)c(-c3ccc(OC)cc3)cn(CCOCC)c12` [Example 93, 1-(2-Ethoxyethyl)-5-fluoro-3-(4-methoxyphenyl)-8-propoxy-1H-quinolin-4-one] here?
Answer: 66%

Question: What about the activity at 0.03 µg/mL [1] of the same compound?
Answer: 79%

Question: What about the activity at 0.1 µg/mL [1] of the same compound?
Answer: 86%

Question: And the activity at 0.3 µg/mL [1]?
Answer: 80%

Question: And the activity at 1 µg/mL [1]?
Answer: 69%

Question: And the melting point?
Answer: 108 to 109 °C

Question: Which results are given for `CCCOc1ccc(F)c2c(=O)c(-c3ccoc3)c[nH]c12` [Example 1, 5-Fluoro-3-furan-3-yl-8-propoxy-1H-quinolin-4-one]?
Answer: activity at 0.01 µg/mL [1]: 51%; activity at 0.03 µg/mL [1]: 62%; activity at 0.1 µg/mL [1]: 70%; activity at 0.3 µg/mL [1]: 66%; activity at 1 µg/mL [1]: 64%; melting point: 214 to 215 °C
